In patent publication US20080269267A1, “KINASE INHIBITORS USEFUL FOR THE TREATMENT OF MYLEOPROLIFIC DISEASES AND OTHER PROLIFERATIVE DISEASES” (Deciphera Pharmaceuticals, LLC, priority 2007, published 2008):
Substitutions are numbered along the chain they refer to.

How the values were obtained:
[1] = target: T1, Abl kinase (SEQ ID NO:1) (Homo sapiens, UniProt P00519); assay: Abl kinase assay (pyruvate kinase/lactate dehydrogenase coupled, ADP production); details: 2 h preincubation at 30° C., ATP 500 μM; read-out: Abl Enzyme Assay, biochemical IC50
T1 construct: purchased deCode Genetics
T1 sequence (P00519 with tags, fused parts or gaps): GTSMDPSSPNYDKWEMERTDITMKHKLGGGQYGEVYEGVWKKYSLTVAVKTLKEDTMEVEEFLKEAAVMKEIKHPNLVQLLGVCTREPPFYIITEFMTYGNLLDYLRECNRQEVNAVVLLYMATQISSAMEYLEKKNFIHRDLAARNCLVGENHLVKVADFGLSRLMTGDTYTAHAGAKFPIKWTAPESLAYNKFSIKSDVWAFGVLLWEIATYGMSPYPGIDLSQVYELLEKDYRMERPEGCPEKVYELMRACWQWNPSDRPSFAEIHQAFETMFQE
Procedure: Abl Kinase (SEQ ID NO:1) Assay
Activity of Abl kinase (SEQ ID NO:1) was determined by following the production of ADP from the kinase reaction through coupling with the pyruvate kinase/lactate dehydrogenase system (e.g., Schindler, et al. Science (2000) 289, 1938-1942). In this assay, the oxidation of NADH (thus the decrease at A340nm) was continuously monitored spectrophometrically. The reaction mixture (100 μl) contained Abl kinase (1 nM. Abl from deCode Genetics), peptide substrate (EAIYAAPFAKKK. 0.2 mM), MgCl2 (10 mM), pyruvate kinase (4 units), lactate dehydrogenase (0.7 units), phosphoenol pyruvate (1 mM), and NADH (0.28 mM) in 90 mM Tris buffer containing 0.2% octyl-glucoside and 3.5% DMSO, pH 7.5. Test compounds were incubated with Abl (SEQ ID NO:1) and other reaction reagents at 30° C. for 2 h before ATP (500 μM) was added to start the reaction. The absorption at 340 nm was monitored continuously for 2 hours at 30° C. on Polarstar Optima plate reader (BMG). The reaction rate was calculated using the 1.0 to 2.0 h time frame. Percent inhibition was obtained by comparison of reaction rate with that of a control (i.e. with no test compound). IC50 values were calculated from a series of percent inhibition values determined at a range of inhibitor concentrations using software routines as implemented in the GraphPad Prism software package.

[2] = target: T2, T315I Abl kinase (SEQ ID NO:2) (Homo sapiens, UniProt P00519, T315I); assay: T315I Abl kinase assay (pyruvate kinase/lactate dehydrogenase coupled); details: 1 h preincubation at 30° C., ATP 500 μM; read-out: Abl T315l Enzyme Assay, biochemical IC50
T2 construct: purchased deCode Genetics
T2 sequence (P00519 with tags, fused parts or gaps T315I): T1 sequence (P00519 with tags, fused parts or gaps) with T94I
Procedure: Abl Kinase (SEQ ID NO:2) Assay
Activity of T315I Abl kinase (SEQ ID NO:2) was determined by following the production of ADP from the kinase reaction through coupling with the pyruvate kinase/lactate dehydrogenase system (e.g., Schindler, et al. Science (2000) 289, 1938-1942). In this assay, the oxidation of NADH (thus the decrease at A340nm) was continuously monitored spectrophometrically. The reaction mixture (100 μl) contained Abl kinase (4.4 nM. […] Abl from deCode Genetics), peptide substrate (EAIYAAPFAKKK, 0.2 mM), MgCl2 (10 mM), pyruvate kinase (4 units), lactate dehydrogenase (0.7 units), phosphoenol pyruvate (1 mM), and NADH (0.28 mM) in 90 mM Tris buffer containing 0.2% octyl-glucoside and 1% DMSO, pH 7.5. Test compounds were incubated with T315I Abl (SEQ ID NO:2) and other reaction reagents at 30° C. for 1 h before ATP (500 μM) was added to start the reaction. The absorption at 340 nm was monitored continuously for 2 hours at 30° C. on Polarstar Optima plate reader (BMG). The reaction rate was calculated using the 1.0 to 2.0 h time frame. Percent inhibition was obtained by comparison of reaction rate with that of a control (i.e. with no test compound). IC50 values were calculated from a series of percent inhibition values determined at a range of inhibitor concentrations using software routines as implemented in the GraphPad Prism software package.

[3] = target: T3, BaF3 cells transfected with T315I p210 BCR-Abl (Homo sapiens, UniProt P00519, T315I, cells depend on it); assay: Ba/F3 p210 T315I whole cell proliferation assay (Cell Titer Blue, 72 hours); format: cell-based; details: 72 hours incubation; read-out: Ba/F3 p210 T315I whole cell proliferation assay, antiproliferation IC50
T3 construct: fused on or other part: P11274 (Breakpoint cluster region protein)
Procedure: BaF3 cells (parental or transfected with the following: wild type p210 BCR-Abl and T315I p210 BCR-Abl was obtained from Professor Richard Van Etten (New England Medical Center, Boston, Mass.). Briefly, cells were grown in RPMI 1640 supplemented with 10% characterized fetal bovine serum (HyClone, Logan, Utah) at 37 degrees Celsius, 5% CO2, 95% humidity. Cells were allowed to expand until reaching 80% saturation at which point they were subcultured or harvested for assay use.
A serial dilution of test compound was dispensed into a 96 well black clear bottom plate (Corning, Corning, N.Y.). For each cell line, three thousand cells were added per well in complete growth medium. Plates were incubated for 72 hours at 37 degrees Celsius, 5% CO2, 95% humidity. At the end of the incubation period Cell Titer Blue (Promega, Madison, Wis.) was added to each well and an additional 4.5 hour incubation at 37 degrees Celsius, 5% CO2, 95% humidity was performed. Plates were then read on a BMG Fluostar Optima (BMG, Durham, N.C.) using an excitation of 544 nm and an emission of 612 nm. Data was analyzed using Prism software (Graphpad, San Diego, Calif.) to calculate IC50's.

Row | IC50 [1] | IC50 [2] | GI50 [3] | SMILES
1 | < 100 nM | < 100 nM | < 100 nM | CCc1cc(NC(=O)Nc2ccc(Oc3ccnc(-c4cnn(C)c4)c3)cc2F)n(-c2ccc(CO)cc2)n1 [Example 19, 1-(3-ethyl-1-(4-(hydroxymethyl)phenyl)-1H-pyrazol-5-yl)-3-(2-fluoro-4-(2-(1-methyl-1H-pyrazol-4-yl)pyridin-4-yloxy)phenyl)urea]
2 | < 100 nM | < 100 nM | < 100 nM | CC(C)n1cc(NC(=O)Nc2ccc(Oc3ccnc(-c4cnn(C)c4)c3)cc2F)c(-c2ccccc2)n1 [Example 21, 1-(2-fluoro-4-(2-(1-methyl-1H-pyrazol-4-yl)pyridin-4-yloxy)phenyl)-3-(1-isopropyl-3-phenyl-1H-pyrazol-4-yl)urea]
3 | < 100 nM | < 100 nM | < 100 nM | CC(C)c1cc(NC(=O)Nc2ccc(Oc3ccnc(-c4cnn(C)c4)c3)cc2F)n(-c2cccc(F)c2)n1 [Example 24, 1-(2-fluoro-4-(2-(1-methyl-1H-pyrazol-4-yl)pyridin-4-yloxy)phenyl)-3-(1-(3-fluorophenyl)-3-isopropyl-1H-pyrazol-5-yl)urea]
4 | < 100 nM | < 100 nM | < 10000 nM | Cn1cc(-c2cc(Oc3ccc(NC(=O)Nc4cc(-c5ccccc5F)nn4C)c(F)c3F)ccn2)cn1 [Example 25, 1-(2,3-difluoro-4-(2-(1-methyl-1H-pyrazol-4-yl)pyridin-4-yloxy)phenyl)-3-(3-(2-fluorophenyl)-1-methyl-1H-pyrazol-5-yl)urea]
